Among the data in ChEMBL document CHEMBL1255171 are Activity values, retold here.

Calls of active or inactive are those of the source. The rule behind the calls is not given here. Where a SMILES comes first, the peptide text is derived from it. Bridges are numbered along the chain shown (N, C = ends).

Test [1] concerns the target Secretin receptor (Homo sapiens) (UniProt P47872). Description: Displacement of [125I]-secretin-27 from secretin receptor expressed in CHO cells at 1 uM by gamma-spectrometer analysis. The test is classed as cell-based. A general note: Displacement assays read how much labelled ligand stays bound in the presence of the test substance.
Test [2] shares this target. Description: Agonist activity at secretin receptor expressed in CHO cells assessed as increase of cAMP level at 1 uM. It counts as functional, cell-based. For orientation: cAMP levels reflect the balance of adenylyl cyclase and phosphodiesterase activity.

Sequence of Secretin receptor (Homo sapiens) (P47872 whole entry): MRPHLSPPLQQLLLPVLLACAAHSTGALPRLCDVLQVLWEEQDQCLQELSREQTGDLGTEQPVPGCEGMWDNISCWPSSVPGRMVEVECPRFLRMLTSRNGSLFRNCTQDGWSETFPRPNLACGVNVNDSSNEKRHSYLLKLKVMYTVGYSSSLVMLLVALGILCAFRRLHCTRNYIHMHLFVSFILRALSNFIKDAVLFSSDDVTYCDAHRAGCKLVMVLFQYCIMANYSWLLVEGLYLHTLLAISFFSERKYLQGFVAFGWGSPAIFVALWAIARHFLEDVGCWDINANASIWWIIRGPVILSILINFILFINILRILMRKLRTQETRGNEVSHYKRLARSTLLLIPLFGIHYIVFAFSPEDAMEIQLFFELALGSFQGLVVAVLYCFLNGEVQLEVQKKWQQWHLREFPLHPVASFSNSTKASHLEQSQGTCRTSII

Consider `CC(C)C[C@H](NC(=O)CNC(=O)[C@H](CCC(N)=O)NC(=O)[C@H](CC(C)C)NC(=O)[C@H](CC(C)C)NC(=O)[C@H](CCCNC(=N)N)NC(=O)[C@H](CCC(N)=O)NC(=O)[C@H](CC(C)C)NC(=O)[C@H](CCCNC(=N)N)NC(=O)[C@H](C)NC(=O)[C@H](CO)NC(=O)[C@H](CC(=O)O)NC(=O)[C@H](CCC(N)=O)NC(=O)[C@H](CC(C)C)NC(=O)[C@H](CCCNC(=N)N)NC(=O)[C@H](CO)NC(=O)[C@H](Cc1ccc(O)cc1)NC(=O)[C@H](CCC(=O)O)NC(=O)[C@H](CO)NC(=O)[C@@H](NC(=O)[C@H](Cc1ccccc1)NC(=O)[C@@H]1CSSC[C@H](NC(=O)[C@H](CO)NC(=O)[C@@H](N)Cc2cnc[nH]2)C(=O)NCC(=O)N1)[C@@H](C)O)C(=O)N[C@H](C(N)=O)C(C)C` (H-HSCGCFTSEYSRLQDSARLQRLLQGLV-NH2; disulfide 3-5), for which the result in test [1] and in test [2] was Active. With `CC(C)C[C@H](NC(=O)CNC(=O)[C@H](CCC(N)=O)NC(=O)[C@H](CC(C)C)NC(=O)[C@H](CC(C)C)NC(=O)[C@H](CCCNC(=N)N)NC(=O)[C@H](CCC(N)=O)NC(=O)[C@H](CC(C)C)NC(=O)[C@H](CCCNC(=N)N)NC(=O)[C@H](C)NC(=O)[C@H](CO)NC(=O)[C@H](CC(=O)O)NC(=O)[C@H](CCC(N)=O)NC(=O)[C@H](CC(C)C)NC(=O)[C@H](CCCNC(=N)N)NC(=O)[C@H](CO)NC(=O)[C@H](Cc1ccc(O)cc1)NC(=O)[C@H](CCC(=O)O)NC(=O)[C@H](CO)NC(=O)[C@@H]1CSSC[C@H](NC(=O)[C@H](CC(=O)O)NC(=O)[C@H](CO)NC(=O)[C@@H](N)Cc2cnc[nH]2)C(=O)N[C@@H]([C@@H](C)O)C(=O)N[C@@H](Cc2ccccc2)C(=O)N1)C(=O)N[C@H](C(N)=O)C(C)C` (H-HSDCTFCSEYSRLQDSARLQRLLQGLV-NH2; disulfide 4-7), the result in test [1] and in test [2] was Active.

On to `CC(C)C[C@H](NC(=O)CNC(=O)[C@H](CCC(N)=O)NC(=O)[C@H](CC(C)C)NC(=O)[C@H](CC(C)C)NC(=O)[C@H](CCCNC(=N)N)NC(=O)[C@H](CCC(N)=O)NC(=O)[C@H](CC(C)C)NC(=O)[C@H](CCCNC(=N)N)NC(=O)[C@H](C)NC(=O)[C@H](CO)NC(=O)[C@H](CC(=O)O)NC(=O)[C@H](CCC(N)=O)NC(=O)[C@H](CC(C)C)NC(=O)[C@H](CCCNC(=N)N)NC(=O)[C@H](CO)NC(=O)[C@H](Cc1ccc(O)cc1)NC(=O)[C@@H]1CSSC[C@H](NC(=O)[C@H](Cc2ccccc2)NC(=O)[C@@H](NC(=O)CNC(=O)[C@H](CC(=O)O)NC(=O)[C@H](CO)NC(=O)[C@@H](N)Cc2cnc[nH]2)[C@@H](C)O)C(=O)N[C@@H](CO)C(=O)N1)C(=O)N[C@H](C(N)=O)C(C)C` (H-HSDGTFCSCYSRLQDSARLQRLLQGLV-NH2; disulfide 7-9), for which the result in test [2] was Active.
